{
  "source": "ChEMBL document CHEMBL5723035",
  "about": "“Affinity Biochemical Literature for EUbOPEN Chemogenomic Library” (2024)",
  "key": {"Caspase-4": {"biological_target": "Caspase-4 (Homo sapiens, UniProt P49662)", "sequence (P49662 81-270 limits assumed)": "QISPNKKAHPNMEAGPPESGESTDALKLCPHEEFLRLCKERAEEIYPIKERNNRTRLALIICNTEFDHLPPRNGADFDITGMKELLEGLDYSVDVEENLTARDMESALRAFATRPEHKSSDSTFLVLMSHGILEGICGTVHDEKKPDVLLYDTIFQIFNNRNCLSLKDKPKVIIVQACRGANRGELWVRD", "sequence (P49662 290-377 limits assumed)": "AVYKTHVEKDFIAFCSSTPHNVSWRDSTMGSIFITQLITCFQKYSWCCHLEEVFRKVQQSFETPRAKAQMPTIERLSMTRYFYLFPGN", "assay": "Affinity Biochemical interaction: (enzymatic assay (fluorogenic substrate cleavage)) EUB0002201a CASP4", "assay_type": "functional", "design": "mode of action Inhibitor, recommended concentration 1 uM"}, "Histone deacetylase 3": {"biological_target": "Histone deacetylase 3 (Homo sapiens, UniProt O15379)", "sequence (O15379 whole entry)": "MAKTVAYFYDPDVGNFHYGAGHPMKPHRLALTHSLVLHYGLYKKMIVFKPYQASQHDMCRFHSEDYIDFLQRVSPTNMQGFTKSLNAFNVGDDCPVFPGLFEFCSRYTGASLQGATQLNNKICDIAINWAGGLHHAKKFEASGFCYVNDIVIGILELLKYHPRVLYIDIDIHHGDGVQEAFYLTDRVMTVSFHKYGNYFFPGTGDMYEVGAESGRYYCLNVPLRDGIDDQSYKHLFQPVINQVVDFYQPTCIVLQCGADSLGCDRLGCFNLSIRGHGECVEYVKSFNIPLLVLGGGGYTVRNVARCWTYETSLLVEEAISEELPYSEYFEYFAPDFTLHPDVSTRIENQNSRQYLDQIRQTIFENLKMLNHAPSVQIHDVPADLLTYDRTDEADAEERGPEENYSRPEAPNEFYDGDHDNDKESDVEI"}, "Caspase-7 [1]": {"biological_target": "T1, Caspase-7 (Homo sapiens, UniProt P55210)", "T1 sequence (P55210 24-198 limits assumed)": "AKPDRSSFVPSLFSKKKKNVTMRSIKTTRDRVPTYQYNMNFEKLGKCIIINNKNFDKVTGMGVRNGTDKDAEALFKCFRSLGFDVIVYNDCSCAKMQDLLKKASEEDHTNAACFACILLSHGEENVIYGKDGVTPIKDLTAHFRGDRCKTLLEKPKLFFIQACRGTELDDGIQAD", "T1 sequence (P55210 207-303 limits assumed)": "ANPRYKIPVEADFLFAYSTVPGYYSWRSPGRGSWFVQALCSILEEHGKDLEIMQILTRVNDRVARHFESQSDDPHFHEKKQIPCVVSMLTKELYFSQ", "assay": "Affinity Biochemical interaction: (enzymatic assay (fluorogenic substrate cleavage)) EUB0002173aAD CASP7", "assay_type": "functional", "design": "mode of action Inhibitor, recommended concentration 1 uM"}, "Caspase-8 [2]": {"biological_target": "T2, Caspase-8 (Homo sapiens, UniProt Q14790)", "T2 sequence (Q14790 217-374 limits assumed)": "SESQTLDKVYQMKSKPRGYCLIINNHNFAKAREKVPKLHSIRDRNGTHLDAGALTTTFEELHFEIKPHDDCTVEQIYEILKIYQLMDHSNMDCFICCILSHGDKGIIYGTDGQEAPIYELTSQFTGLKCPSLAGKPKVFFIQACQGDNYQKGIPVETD", "T2 sequence (Q14790 385-479 limits assumed)": "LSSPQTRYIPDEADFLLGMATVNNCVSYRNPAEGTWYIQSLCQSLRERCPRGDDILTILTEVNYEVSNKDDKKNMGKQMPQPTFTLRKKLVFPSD", "assay": "Affinity Biochemical interaction: (enzymatic assay (fluorogenic substrate cleavage)) EUB0002173aAD CASP8", "assay_type": "functional", "design": "mode of action Inhibitor, recommended concentration 1 uM"}, "Caspase-10": {"biological_target": "Caspase-10 (Homo sapiens, UniProt Q92851)", "sequence (Q92851 220-415 limits assumed)": "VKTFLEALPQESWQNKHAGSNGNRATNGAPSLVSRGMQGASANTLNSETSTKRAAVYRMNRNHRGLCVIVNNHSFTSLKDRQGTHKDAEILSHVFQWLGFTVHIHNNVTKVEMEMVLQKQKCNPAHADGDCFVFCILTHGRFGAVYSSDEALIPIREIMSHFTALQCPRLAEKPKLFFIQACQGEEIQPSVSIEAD", "sequence (Q92851 416-521 limits assumed)": "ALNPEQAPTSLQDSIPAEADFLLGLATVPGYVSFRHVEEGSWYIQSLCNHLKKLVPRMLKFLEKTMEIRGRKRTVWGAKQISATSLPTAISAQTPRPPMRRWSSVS", "assay": "Affinity Biochemical interaction: (enzymatic assay (fluorogenic substrate cleavage)) EUB0002173aAD CASP10", "assay_type": "functional", "design": "mode of action Inhibitor, recommended concentration 1 uM"}, "Caspase-3 [3]": {"biological_target": "T3, Caspase-3 (Homo sapiens, UniProt P42574)", "T3 sequence (P42574 whole entry)": "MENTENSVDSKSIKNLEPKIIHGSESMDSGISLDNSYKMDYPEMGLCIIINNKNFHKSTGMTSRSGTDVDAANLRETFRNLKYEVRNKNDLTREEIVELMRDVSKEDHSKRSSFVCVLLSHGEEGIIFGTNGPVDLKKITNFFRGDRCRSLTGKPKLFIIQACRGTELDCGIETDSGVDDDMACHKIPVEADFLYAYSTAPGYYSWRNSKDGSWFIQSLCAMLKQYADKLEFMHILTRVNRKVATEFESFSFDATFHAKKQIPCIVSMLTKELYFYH", "assay": "Affinity Biochemical interaction: (enzymatic assay (fluorogenic substrate cleavage)) EUB0002175aAD CASP3", "assay_type": "functional", "design": "mode of action Inhibitor, recommended concentration 1 uM"}, "[4]": {"biological_target": "T4, Histone-lysine N-methyltransferase EZH1 (Homo sapiens, UniProt Q92800)", "T4 sequence (Q92800 whole entry)": "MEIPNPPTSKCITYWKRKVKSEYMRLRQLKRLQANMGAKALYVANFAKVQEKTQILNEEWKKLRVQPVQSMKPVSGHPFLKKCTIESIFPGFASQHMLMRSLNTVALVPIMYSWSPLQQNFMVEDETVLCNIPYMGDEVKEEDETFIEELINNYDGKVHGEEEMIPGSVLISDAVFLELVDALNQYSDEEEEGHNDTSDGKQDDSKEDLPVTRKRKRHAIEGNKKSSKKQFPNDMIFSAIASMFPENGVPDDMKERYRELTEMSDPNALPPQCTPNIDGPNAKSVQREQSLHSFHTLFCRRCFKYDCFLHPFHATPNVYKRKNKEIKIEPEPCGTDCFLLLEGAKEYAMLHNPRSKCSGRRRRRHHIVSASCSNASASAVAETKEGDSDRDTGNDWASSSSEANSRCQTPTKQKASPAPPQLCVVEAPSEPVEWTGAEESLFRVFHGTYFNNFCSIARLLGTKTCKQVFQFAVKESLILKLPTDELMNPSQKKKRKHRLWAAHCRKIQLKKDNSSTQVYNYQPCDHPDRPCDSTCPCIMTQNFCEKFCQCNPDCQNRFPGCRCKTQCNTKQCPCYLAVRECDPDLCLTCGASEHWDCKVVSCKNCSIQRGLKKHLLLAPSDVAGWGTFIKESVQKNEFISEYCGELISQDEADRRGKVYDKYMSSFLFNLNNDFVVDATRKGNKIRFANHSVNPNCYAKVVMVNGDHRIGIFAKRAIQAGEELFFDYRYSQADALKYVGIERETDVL", "assay": "Affinity Biochemical interaction: (ELISA-based protein substrate methylation assay) EUB0002228a EZH1", "assay_type": "functional", "design": "mode of action Inhibitor, recommended concentration 1 uM"}, "[5]": {"biological_target": "T4, Histone-lysine N-methyltransferase EZH1", "assay": "Affinity Biochemical interaction: (inhibition of EZH1 for both SAM and peptide substrates using a Flashplate assay to measure the transfer of a tritiated methyl group from SAM to the peptide) EUB0002228a EZH1", "assay_type": "functional", "design": "mode of action Inhibitor, recommended concentration 1 uM"}, "[6]": {"biological_target": "Histone-lysine N-methyltransferase SMYD3 (Homo sapiens, UniProt Q9H7B4)", "sequence (Q9H7B4 whole entry)": "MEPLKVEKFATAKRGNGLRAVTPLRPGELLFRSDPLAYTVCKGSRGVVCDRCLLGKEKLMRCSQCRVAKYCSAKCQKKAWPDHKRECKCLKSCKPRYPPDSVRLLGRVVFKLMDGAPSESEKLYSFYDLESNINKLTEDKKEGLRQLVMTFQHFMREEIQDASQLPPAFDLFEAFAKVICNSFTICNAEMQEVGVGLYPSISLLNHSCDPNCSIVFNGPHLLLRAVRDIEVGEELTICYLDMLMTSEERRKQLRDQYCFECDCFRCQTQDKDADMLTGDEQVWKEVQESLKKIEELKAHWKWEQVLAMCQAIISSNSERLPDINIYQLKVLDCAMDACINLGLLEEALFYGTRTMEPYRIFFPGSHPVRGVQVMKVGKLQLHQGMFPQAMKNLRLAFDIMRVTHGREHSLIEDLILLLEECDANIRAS", "assay": "Affinity Biochemical interaction: (inhibition of methylation activity, scintillation proximity assay utilizing [3 H]-SAM with specific product capture of biotin-tagged peptides on streptavidin SPA beads) EUB0002243aAD SMYD3", "assay_type": "functional", "design": "mode of action Inhibitor, recommended concentration 1 uM"}, "[7]": {"assay": "Affinity Biochemical interaction: (enzymatic assay (fluorogenic substrate cleavage)) EUB0002134a CAPN2"}, "Caspase-8 [8]": {"biological_target": "T2, Caspase-8", "assay": "Affinity Biochemical interaction: (enzymatic assay (fluorogenic substrate cleavage)) EUB0002177aAD CASP8", "assay_type": "functional", "design": "mode of action Inhibitor, recommended concentration 1 uM"}, "Caspase-2": {"biological_target": "Caspase-2 (Homo sapiens, UniProt P42575)", "sequence (P42575 170-325 limits assumed)": "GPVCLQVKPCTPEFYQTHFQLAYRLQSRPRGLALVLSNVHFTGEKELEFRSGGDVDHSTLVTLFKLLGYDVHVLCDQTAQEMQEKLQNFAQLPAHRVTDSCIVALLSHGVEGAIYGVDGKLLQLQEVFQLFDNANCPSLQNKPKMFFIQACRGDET", "sequence (P42575 334-452 limits assumed)": "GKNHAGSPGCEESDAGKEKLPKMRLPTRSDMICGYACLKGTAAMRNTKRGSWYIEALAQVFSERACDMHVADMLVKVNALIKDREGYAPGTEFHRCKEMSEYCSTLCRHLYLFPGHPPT", "assay": "Affinity Biochemical interaction: (enzymatic assay (fluorogenic substrate cleavage)) EUB0002196a CASP2", "assay_type": "functional", "design": "mode of action Inhibitor, recommended concentration 1 uM"}, "Caspase-3 [9]": {"biological_target": "T3, Caspase-3", "assay": "Affinity Biochemical interaction: (enzymatic assay (fluorogenic substrate cleavage)) EUB0002196a CASP3", "assay_type": "functional", "design": "mode of action Inhibitor, recommended concentration 1 uM"}, "Caspase-7 [10]": {"biological_target": "T1, Caspase-7", "assay": "Affinity Biochemical interaction: (enzymatic assay (fluorogenic substrate cleavage)) EUB0002196a CASP7", "assay_type": "functional", "design": "mode of action Inhibitor, recommended concentration 1 uM"}, "[11]": {"biological_target": "Diacylglycerol lipase-beta (Homo sapiens) (UniProt Q8NCG7)", "sequence (Q8NCG7 whole entry)": "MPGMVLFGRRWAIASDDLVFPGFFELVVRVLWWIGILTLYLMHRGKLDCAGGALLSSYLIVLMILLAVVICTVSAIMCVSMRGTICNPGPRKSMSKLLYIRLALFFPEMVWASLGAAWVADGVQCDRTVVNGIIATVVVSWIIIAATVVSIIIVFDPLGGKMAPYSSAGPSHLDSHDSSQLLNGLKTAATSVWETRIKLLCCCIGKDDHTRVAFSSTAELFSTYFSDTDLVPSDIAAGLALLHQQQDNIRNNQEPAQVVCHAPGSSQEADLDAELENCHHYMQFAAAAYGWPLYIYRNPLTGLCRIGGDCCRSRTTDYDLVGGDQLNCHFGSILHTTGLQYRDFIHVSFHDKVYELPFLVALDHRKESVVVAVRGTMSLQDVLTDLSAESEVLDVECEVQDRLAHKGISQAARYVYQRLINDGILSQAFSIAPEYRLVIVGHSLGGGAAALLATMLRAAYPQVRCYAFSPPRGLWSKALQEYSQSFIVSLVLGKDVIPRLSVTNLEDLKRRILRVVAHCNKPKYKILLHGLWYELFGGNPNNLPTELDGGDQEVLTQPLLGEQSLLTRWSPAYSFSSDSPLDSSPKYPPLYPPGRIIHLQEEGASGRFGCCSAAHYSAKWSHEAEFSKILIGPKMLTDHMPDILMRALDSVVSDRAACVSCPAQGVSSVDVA", "assay": "Affinity Biochemical interaction: (Gel-based competitive ABPP) EUB0002547a DAGLB", "assay_type": "functional", "design": "recommended concentration 1 uM", "conditions": "Affinity Biochemical Source Knowledge https://pubs.acs.org/doi/epdf/10.1021/jm400898x"}, "Caspase-1": {"biological_target": "Caspase-1 (Homo sapiens, UniProt P29466)", "sequence (P29466 120-297 limits assumed)": "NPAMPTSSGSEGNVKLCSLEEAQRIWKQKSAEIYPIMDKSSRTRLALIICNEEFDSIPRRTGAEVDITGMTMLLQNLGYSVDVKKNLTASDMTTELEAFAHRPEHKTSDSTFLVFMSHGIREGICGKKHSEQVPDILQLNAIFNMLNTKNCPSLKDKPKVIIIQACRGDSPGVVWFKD", "sequence (P29466 317-404 limits assumed)": "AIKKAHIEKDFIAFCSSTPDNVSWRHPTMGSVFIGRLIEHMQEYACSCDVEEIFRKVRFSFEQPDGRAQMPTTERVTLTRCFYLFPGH", "assay": "Affinity Biochemical interaction: (enzymatic assay (fluorogenic substrate cleavage)) EUB0002198aAD CASP1", "assay_type": "functional", "design": "mode of action Inhibitor, recommended concentration 1 uM"}, "Caspase-8 [12]": {"biological_target": "T2, Caspase-8", "assay": "Affinity Biochemical interaction: (enzymatic assay (fluorogenic substrate cleavage)) EUB0002198aAD CASP8", "assay_type": "functional", "design": "mode of action Inhibitor, recommended concentration 1 uM"}, "Caspase-9": {"biological_target": "Caspase-9 (Homo sapiens, UniProt P55211)", "sequence (P55211 1-315 limits assumed)": "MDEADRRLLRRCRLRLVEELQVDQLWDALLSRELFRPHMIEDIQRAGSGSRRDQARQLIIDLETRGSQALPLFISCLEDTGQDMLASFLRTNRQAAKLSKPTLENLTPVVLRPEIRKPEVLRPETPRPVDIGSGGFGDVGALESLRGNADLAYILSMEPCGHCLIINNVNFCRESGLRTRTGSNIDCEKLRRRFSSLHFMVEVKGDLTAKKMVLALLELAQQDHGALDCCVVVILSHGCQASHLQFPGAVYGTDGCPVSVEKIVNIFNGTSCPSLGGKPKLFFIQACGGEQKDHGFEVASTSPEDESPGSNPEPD", "sequence (P55211 331-416 limits assumed)": "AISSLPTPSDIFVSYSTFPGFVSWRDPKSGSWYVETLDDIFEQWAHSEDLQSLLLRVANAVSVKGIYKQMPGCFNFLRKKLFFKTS", "assay": "Affinity Biochemical interaction: (peptide substrate detection probe bound to magnetic beads, detection of liberated fluorophores) EUB0002203aAD CASP9", "assay_type": "functional", "design": "mode of action Inhibitor, recommended concentration 1 uM"}},
  "note": "Residues, ends and D or L forms follow the SMILES beside them. *: point of attachment. CH2Cl = ClC*",
  "data": [
    {"smiles": "CC(=O)N[C@@H](CC(C)C)C(=O)N[C@@H](CCC(=O)O)C(=O)N[C@H](C(=O)N[C@H](C=O)CC(=O)O)C(C)C", "note": "(Ac-LEVD-aldehyde)", "values": [
      {"measurement": "IC50", "setting": "Caspase-4", "value": 0.084, "unit": "µM"}
    ]},
    {"smiles": "CN(C)Cc1ccc(S(=O)(=O)n2ccc(/C=C/C(=O)NO)c2)cc1", "values": [
      {"measurement": "IC50", "setting": "Histone deacetylase 3", "value": 0.0501, "unit": "µM"}
    ]},
    {"smiles": "CC(=O)N[C@@H](CC(=O)O)C(=O)N[C@@H](CCC(=O)O)C(=O)N[C@H](C(=O)N[C@H](C=O)CC(=O)O)C(C)C", "values": [
      {"measurement": "Ki", "setting": "Caspase-7 [1]", "value": 0.0016, "unit": "µM"},
      {"measurement": "Ki", "setting": "Caspase-8 [2]", "value": 0.00092, "unit": "µM"},
      {"measurement": "Ki", "setting": "Caspase-10", "value": 0.012, "unit": "µM"}
    ]},
    {"smiles": "CSCC[C@H](NC(=O)[C@H](CC(=O)O)NC(C)=O)C(=O)N[C@@H](CCC(N)=O)C(=O)N[C@H](C=O)CC(=O)O", "note": "(Ac-DMQD-aldehyde)", "values": [
      {"measurement": "Ki", "setting": "Caspase-3 [3]", "value": 0.0133, "unit": "µM"}
    ]},
    {"smiles": "CCN(c1cc(C#CCN2CCOCC2)cc(C(=O)NCc2c(C)cc(C)[nH]c2=O)c1C)[C@H]1CC[C@H](N(C)CCOC)CC1", "values": [
      {"measurement": "IC50", "setting": "[4]", "value": 0.103, "unit": "µM"},
      {"measurement": "Ki", "setting": "[5]", "value": 0.045, "unit": "µM"}
    ]},
    {"smiles": "CN(C)CCCN(CC[C@H](N)C(=O)O)C[C@H]1O[C@@H](n2cnc3c(N)ncnc32)[C@H](O)[C@@H]1O", "values": [
      {"measurement": "IC50", "setting": "[6]", "value": 0.13, "unit": "µM"},
      {"measurement": "Ki", "setting": "[6]", "value": 0.014, "unit": "µM"}
    ]},
    {"smiles": "CCCC(NC(=O)C(CC(C)C)NC(=O)OCc1ccccc1)C(=O)C(=O)NCc1ccccn1", "note": "(racemic)", "values": [
      {"measurement": "Ki", "setting": "[7]", "value": 0.12, "unit": "µM"}
    ]},
    {"smiles": "CC[C@H](C)[C@H](NC(C)=O)C(=O)N[C@@H](CCC(=O)O)C(=O)N[C@H](C(=O)N[C@H](C=O)CC(=O)O)[C@@H](C)O", "note": "(Ac-IETD-aldehyde)", "values": [
      {"measurement": "IC50", "setting": "Caspase-8 [8]", "value": 0.005, "unit": "µM"}
    ]},
    {"smiles": "CC(=O)N[C@H](C(=O)N[C@@H](CC(=O)O)C(=O)N[C@H](C(=O)N[C@@H](C)C(=O)N[C@H](C=O)CC(=O)O)C(C)C)C(C)C", "note": "(Ac-VDVAD-aldehyde)", "values": [
      {"measurement": "Ki", "setting": "Caspase-2", "value": 0.0035, "unit": "µM"},
      {"measurement": "Ki", "setting": "Caspase-3 [9]", "value": 0.001, "unit": "µM"},
      {"measurement": "Ki", "setting": "Caspase-7 [10]", "value": 0.0075, "unit": "µM"}
    ]},
    {"smiles": "CC(C)(C)OC(=O)NCCCCCN(CCc1ccccc1)C(=O)n1cc(-c2ccc(OC(F)(F)F)cc2)nn1", "values": [
      {"measurement": "inhibition", "setting": "[11]", "value": 73, "unit": "%"}
    ]},
    {"smiles": "CC(=O)N[C@@H](CC(C)C)C(=O)N[C@@H](CCC(=O)O)C(=O)N[C@@H](Cc1cnc[nH]1)C(=O)N[C@H](C=O)CC(=O)O", "note": "(Ac-LEHD-aldehyde)", "values": [
      {"measurement": "IC50", "setting": "Caspase-1", "value": 0.015, "unit": "µM"},
      {"measurement": "IC50", "setting": "Caspase-8 [12]", "value": 0.00382, "unit": "µM"}
    ]},
    {"smiles": "CC(=O)N[C@@H](CC(C)C)C(=O)N[C@@H](CCC(=O)O)C(=O)N[C@@H](Cc1cnc[nH]1)C(=O)N[C@@H](CC(=O)O)C(=O)CCl", "note": "(Ac-LEHD-CH2Cl)", "values": [
      {"measurement": "IC50", "setting": "Caspase-9", "value": 0.0728, "unit": "µM"}
    ]}
  ]
}
